From US7588788B2, “Immune modulation and anti-allergy activities of Zingiber zerumbet” (Wholesome Life Science Co., Ltd., priority 2004, dated 2009)

How the values were obtained:
[1] = test system: Rat Basophilic Leukemia-1 (RBL-1) cell, LTC4 secretion; assay: LTC4 released by A23187 stimulated leukemia cells (ELISA); type: cell-based; details: compound identified from the most active fraction
Description: Cell culture and drug treatment: Rat Basophilic Leukemia-1 (RBL-1) was purchased from Food Industry Research and Development Institute (CCRC 60198, ATCC CRL-1378), and cultured in MEM-alpha medium (Gibco, 12000). All trans-retinoic acid (1 μg/ml) was added to a 3.5 cm diameter well (6-well plate) at 2×10^6 cells/2 ml/well. Plates were then incubated at 37° C. with 5% CO2 in air for 16 hr. Various volumes of ZZ samples were added to the wells to make the appropriate final concentrations (0, 0.5, 5, 50 μg/ml) and incubated for 2 more hours. A23187 (calcium ionophore) was added to each well to reach the final concentration of 10 μM to stimulate RBL-1 cells to release LTC4/cLTs for 15 min. The mediums in the wells were centrifuged at 5000 rpm for 10 min to obtain the supernatant for ELISA assay.
LTC4/cLTs ELISA assay: The supernatants of the cell cultures were diluted into appropriate concentrations before the EIA analysis for LTC4/cLTs. Analysis was performed according to the procedures provided by the manufacturer.

Th1/Th2 immune responses = assay: Active compound identification by in vitro bioactive screening of purification fractions; type: cell-based; details: compound identified from active fractions

| Compound | effect of suppressing LTC4 [1] | increase of the IFN-γ/IL-4 gene expression ratio (Th1/Th2 immune responses) |
| --- | --- | --- |
| COc1c(-c2ccc(O)cc2)oc2cc(O)cc(O)c2c1=O [5,7-dihydroxy-2-(4-hydroxy-phenyl)-3-methoxy-chromen-4-one] | active compound | – |
| C/C1=C\CC(C)(C)/C=C/C(=O)/C(C)=C/CC1 [Zerumbone, zerumbone] | – | active ingredient |
